One series addresses T1, PI3K (p110δ/p85α) (h) (Homo sapiens, UniProt O00329).
T1 construct: purchased Millipore UK Ltd
As to the kind of experiment: PI3K (p110δ/p85α) (h) non-radioactive HTRF kinase assay. The class given is biochemical. Particulars: Kinase inhibition data; performed at Millipore UK Ltd. Here is the method:
The above assay procedure can be used to determine the IC50 for inhibition and/or the inhibition constant, Ki.
PI3K (p110δ/p85α) (h) [Non-Radioactive Assay]
PI3K (p110δ/p85α) (h) is incubated in assay buffer containing 10 μM phosphatidylinositol-4, 5-bisphosphate and MgATP (concentration as required). The reaction is initiated by the addition of the MgATP mix. After incubation for 30 minutes at room temperature, the reaction is stopped by the addition of stop solution containing EDTA and biotinylated phosphatidylinositol-3,4,5-trisphosphate. Finally, detection buffer is added, which contains europium-labelled anti-GST monoclonal antibody, GST-tagged GRP1 PH domain and streptavidin-allophycocyanin. The plate is then read in timeresolved fluorescence mode and the homogenous time-resolved fluorescence (HTRF) signal is determined according to the formula HTRF=10000×(Em665 nm/Em620 nm).
The kinase assays described herein were performed at Millipore UK Ltd, Dundee Technology Park, Dundee DD2 1SW, UK.

A short description of series [1]: Compound stability in rat liver microsomes. The class given is in vitro ADME. The settings on record: for CLint scaled at 5 μM: liver microsomes, pH 7.4, in vivo CLint extrapolated from rat liver microsome incubation; for half-life at 5 μM: rat liver microsomes 0.5 mg protein/mL, compound 5 μM, NADPH 1.0 mM, pH 7.4, 37° C., read-out: Rat T1/2. Here is the method: (§1) Human or rat liver microsomes incubations were conducted in duplicate in polypropylene tubes. The typical incubation mixtures consisted of human or rat liver microsomes (0.5 mg protein/mL), compounds of interest (5 μM) and NADPH (1.0 mM) in a total volume of 200 μL potassium phosphate buffer (PBS, 100 mM, pH 7.4). Compounds were dissolved in DMSO and diluted with PBS such that the final concentration of DMSO was 0.05%. The enzymatic reactions were commenced with the addition of protein after a 3-min preincubation and incubated in a water bath open to the air at 37° C. Reactions were terminated at various time points (0, 5, 10, 15, 30, 60 min) by adding equal volume of ice-cold acetonitrile. The samples were stored at −80° C. until LC/MS/MS assays.
(§2) The concentrations of compounds in the incubation mixtures of human or rat liver microsomes were determined by a LC/MS/MS method. The ranges of the linearity in the concentration range were determined for each tested compounds.
(§3) A parallel incubation was performed using denatured microsomes as the negative control, and reactions were terminated at various time points (0, 15, 60 min) after incubation at 37° C.
(§4) Dextromethorphan (70 μM) was selected as the positive control, and reactions were terminated at various time points (0, 5, 10, 15, 30, 60 min) after incubation at 37° C. Both positive and negative control samples were included in each assay to ensure the integrity of the microsomal incubation system.
(§5) The concentrations of compounds in human or rat liver microsome incubations were plotted as a percentage of the relevant zero time point control for each reaction. The in vivo CLint were extrapolated (ref.: Naritomi, Y.; Terashita, S.; Kimura, S.; Suzuki, A.; Kagayama, A.; and Sugiyama, Y.; Prediction of human hepatic clearance from in vivo animal experiments and in vitro metabolic studies with liver microsomes from animals and humans. Drug Metab. Dispos., 2001, 29: 1316-1324).

Series [2] in a line: Compound stability in human liver microsomes. The class given is in vitro ADME. The settings on record: for half-life at 5 μM: human liver microsomes 0.5 mg protein/mL, compound 5 μM, NADPH 1.0 mM, pH 7.4, 37° C., read-out: Human T1/2; for CLint scaled at 5 μM: liver microsomes, pH 7.4, in vivo CLint extrapolated from human liver microsome incubation. Here is the method:
as §1, §2, §3, §4, §5

Series [3] is described as follows: Pharmacokinetics after intravenous and oral administration in rats. The class given is in vivo. Particulars: for CL/F / bioavailability: Rats; for CL/F: iv dosing, dose 1 mg/kg (0.5 for Ex. 1, 10, 11, 35; 0.48 for Ex. 24); for AUC(0-t) / half-life / Vd / bioavailability: rat, plasma; for AUC(0-t) / half-life / Vd: iv, 1 mg/kg; for Vd: read-out: Vss; for bioavailability: oral (p.o.) generally 5 or 10 mg/kg versus iv dosing. As to the method:
The LC/MS/MS system used in the analysis consists of an Agilent 1200 Series vacuum degasser, binary pump, well-plate autosampler, thermostatted column compartment, the Agilent G6430 Triple Quadrupole Mass Spectrometer with an electrosprayionization (ESI) source. Quantitative analysis was carried out using MRM mode. The parameters for MRM transitions are in the Table A.
An Agilent XDB-C18, 2.1×30 mm, 3.5 M column was used for the analysis. 5 L of the samples were injected. Analysis condition: The mobile phase was 0.1% formic acid in water (A) and 0.1% formic acid in methanol (B). The flow rate was 0.4 mL/min. And the gradient of Mobile phase was in the Table B.
Alternatively, an Agilent 6330 series LC/MS/MS spectrometer equipped with G1312A binary pumps, a G1367A autosampler and a G1314C UV detector were used in the analysis. An ESI source was used on the LC/MS/MS spectrometer. The analysis was done in positive ion mode as appropriate and the MRM transition for each analyte was optimized using standard solution. A Capcell MP-C18 100×4.6 mm I.D., […] column (Phenomenex, Torrance, Calif., USA) was used during the analysis. The mobile phase was 5 mM ammonia acetate, 0.1% MeOH in water (A): 5 mM ammonia acetate, 0.1% MeOH in acetonitrile (B) (70:30, v/v). The flow rate was 0.6 mL/min. Column was maintained at ambient temperature. 20 μL of the samples were injected.
The compounds disclosed herein are assessed in pharmacokinetic studies in mice, rats, dogs or monkeys. The compounds are administered as a water solution, 2% HPMC+1% TWEEN®80 in water solution, 5% DMSO+5% solutol in saline, 4% MC suspension or capsule. For the intravenous administration, the animals are generally given at 1 or 2 mg/kg dose. For the oral (p.o.) dosing, mice and rats are generally given 5 or 10 mg/kg dose, and dogs and monkeys are generally given 10 mg/kg dose. The blood samples (0.3 mL) are drawn at 0.25, 0.5, 1.0, 2.0, 3.0, 4.0, 6.0, 8.0, 12 and 24 h time points or 0.083, 0.25, 0.5, 1.0, 2.0, 4.0, 6.0, 8.0 and 24 h time points and centrifuged at 3,000 or 4000 rpm for 2 to 10 min. The plasma solutions are collected, stored at −20° C. or −70° C. until analyzed by LC/MS/MS as described above.

SMILES strings stand for the structures.

T1 sequence (O00329 whole entry): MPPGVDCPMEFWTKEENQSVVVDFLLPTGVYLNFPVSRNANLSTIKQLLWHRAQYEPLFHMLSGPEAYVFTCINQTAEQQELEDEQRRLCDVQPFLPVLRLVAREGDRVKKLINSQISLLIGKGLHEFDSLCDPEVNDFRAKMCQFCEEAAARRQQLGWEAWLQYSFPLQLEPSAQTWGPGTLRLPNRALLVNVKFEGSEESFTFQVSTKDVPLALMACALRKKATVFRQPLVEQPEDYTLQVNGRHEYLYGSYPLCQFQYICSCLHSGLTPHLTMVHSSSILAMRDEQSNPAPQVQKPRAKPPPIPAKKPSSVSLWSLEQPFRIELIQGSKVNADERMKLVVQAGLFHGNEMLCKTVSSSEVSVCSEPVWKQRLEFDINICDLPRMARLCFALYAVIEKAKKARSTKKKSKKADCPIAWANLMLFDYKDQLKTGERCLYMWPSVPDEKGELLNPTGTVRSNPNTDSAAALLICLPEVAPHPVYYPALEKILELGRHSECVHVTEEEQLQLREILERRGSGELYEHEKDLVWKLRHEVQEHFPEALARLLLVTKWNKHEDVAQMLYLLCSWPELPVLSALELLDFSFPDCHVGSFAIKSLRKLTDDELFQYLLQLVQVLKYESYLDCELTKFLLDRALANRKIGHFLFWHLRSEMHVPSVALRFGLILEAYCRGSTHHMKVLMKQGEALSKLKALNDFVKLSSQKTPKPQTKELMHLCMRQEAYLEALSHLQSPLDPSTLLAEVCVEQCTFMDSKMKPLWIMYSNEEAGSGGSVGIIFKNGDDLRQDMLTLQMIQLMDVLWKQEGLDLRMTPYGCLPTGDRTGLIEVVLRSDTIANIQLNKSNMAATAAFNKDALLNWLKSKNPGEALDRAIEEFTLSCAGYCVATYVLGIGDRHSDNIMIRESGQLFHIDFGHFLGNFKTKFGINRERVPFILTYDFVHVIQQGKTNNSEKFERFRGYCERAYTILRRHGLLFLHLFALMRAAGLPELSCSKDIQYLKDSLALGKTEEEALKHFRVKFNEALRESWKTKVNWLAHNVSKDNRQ
T1 sequence (P27986 whole entry partner): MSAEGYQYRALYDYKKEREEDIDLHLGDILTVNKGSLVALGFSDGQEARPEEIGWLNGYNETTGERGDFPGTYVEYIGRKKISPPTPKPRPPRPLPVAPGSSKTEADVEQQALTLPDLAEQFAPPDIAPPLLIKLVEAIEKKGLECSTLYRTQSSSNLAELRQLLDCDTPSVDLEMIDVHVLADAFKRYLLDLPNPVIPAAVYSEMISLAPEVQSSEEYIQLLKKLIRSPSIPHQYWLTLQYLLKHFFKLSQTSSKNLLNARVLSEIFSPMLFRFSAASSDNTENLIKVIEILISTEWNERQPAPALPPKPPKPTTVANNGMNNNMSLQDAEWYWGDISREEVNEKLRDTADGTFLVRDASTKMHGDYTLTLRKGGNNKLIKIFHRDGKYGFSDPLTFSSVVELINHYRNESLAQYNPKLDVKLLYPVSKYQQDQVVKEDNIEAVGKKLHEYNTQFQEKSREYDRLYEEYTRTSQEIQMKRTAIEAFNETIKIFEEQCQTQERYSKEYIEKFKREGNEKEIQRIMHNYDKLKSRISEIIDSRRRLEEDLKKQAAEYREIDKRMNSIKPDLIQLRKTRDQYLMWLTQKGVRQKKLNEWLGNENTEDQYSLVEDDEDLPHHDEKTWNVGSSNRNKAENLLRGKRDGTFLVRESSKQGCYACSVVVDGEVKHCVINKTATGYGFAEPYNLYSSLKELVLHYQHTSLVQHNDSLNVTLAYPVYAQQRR

What is called IC50 is the concentration that gives 50% inhibition. Broadly, the CLint scaled is a measure of how fast metabolising enzymes remove a compound, apart from limits set by blood flow. What is called CL/F is clearance divided by bioavailability, as obtained after extravascular dosing. For orientation: AUC(0-t) means the area under the concentration-time curve up to a stated or last time point. A higher AUC(0-t) goes with more exposure. Consider `Cc1nnc(-c2c(N)ncnc2N[C@@H](C)c2nc3cccc(-c4cnn(C)c4)c3c(=O)n2C2CC2)o1` [Ex. 67, (S)-2-(1-((6-amino-5-(5-methyl-1,3,4-oxadiazol-2-yl)pyrimidin-4-yl)amino)ethyl)-3-cyclopropyl-5-(1-methyl-1H-pyrazol-4-yl)quinazolin-4(3H)-one], for which the IC50 on PI3K (p110δ/p85α) (h) stood at 47 nM. Besides, in series [1], the intrinsic clearance (CLint scaled) at 5 μM was 10.1 mL/min/kg and the half-life at 5 μM amounted to 4.08 h. Moreover, in series [2], the half-life at 5 μM worked out at 1.58 h and the CLint scaled at 5 μM was 18.3 mL/min/kg. For the same compound, in series [3], the CL/F was 23.2 mL/min/kg, the AUC(0-t) came out at 777 ng·h/mL, the half-life was 1.14 h and the Vd was 1.86 L/kg. In addition, the bioavailability in series [3] is 71.7%.
As for `Cc1nnc(-c2c(N)ncnc2N[C@@H](C)c2nc3cccc(Cl)c3c(=O)n2C2CC2)o1` [Ex. 70, (S)-2-(1-((6-amino-5-(5-methyl-1,3,4-oxadiazol-2-yl)pyrimidin-4-yl)amino)ethyl)-5-chloro-3-cyclopropylquinazolin-4(3H)-one], the IC50 at PI3K (p110δ/p85α) (h) was 50 nM. In addition, in series [1], the CLint scaled at 5 μM is 37.8 mL/min/kg and the half-life at 5 μM worked out at 1.1 h. In series [2], the half-life at 5 μM was 1.1 h and the CLint scaled at 5 μM was 26.3 mL/min/kg. Besides, in series [3], the CL/F stood at 44 mL/min/kg, the AUC(0-t) was 399 ng·h/mL, the half-life is 0.85 h and the Vd came out at 3.3 L/kg. Further, the bioavailability in series [3] stood at 96.4%.
In the case of `CC[C@H](Nc1ncnc(N)c1-c1nc(C)no1)c1nc2cccc(-c3cnn(C)c3)c2c(=O)n1-c1ccccc1` [Ex. 74, (S)-2-(1-((6-amino-5-(3-methyl-1,2,4-oxadiazol-5-yl)pyrimidin-4-yl)amino)propyl)-5-(1-methyl-1H-pyrazol-4-yl)-3-phenylquinazolin-4(3H)-one], in series [3], the apparent clearance (CL/F) is 14.3 mL/min/kg, the AUC(0-t) amounted to 1120 ng·h/mL, the half-life was 1.56 h and the Vd is 1.83 L/kg. Further, in series [3], the bioavailability was 105%.
For `C[C@H](Nc1ncnc(N)c1-c1nnn(C)n1)c1nc2cccc(-c3cnn(C)c3)c2c(=O)n1C1CC1` [Ex. 75, (S)-2-(1-((6-amino-5-(2-methyl-2H-tetrazol-5-yl)pyrimidin-4-yl)amino)ethyl)-3-cyclopropyl-5-(1-methyl-1H-pyrazol-4-yl)quinazolin-4(3H)-one] the same measures were 19.8 mL/min/kg, 841 ng·h/mL, 1.41 h, 2.01 L/kg and 72.5%.
In the case of `C[C@H](Nc1ncnc(N)c1-c1nnn(C)n1)c1nc2cccc(-c3cnn(C)c3)c2c(=O)n1-c1ccccc1` [Ex. 76, (S)-2-(1-((6-amino-5-(2-methyl-2H-tetrazol-5-yl)pyrimidin-4-yl)amino)ethyl)-5-(1-methyl-1H-pyrazol-4-yl)-3-phenylquinazolin-4(3H)-one], in series [1], the CLint scaled at 5 μM is 8.61 mL/min/kg and the half-life at 5 μM came to 4.81 h. Further, in series [2], the half-life at 5 μM was 4.49 h and the intrinsic clearance (CLint scaled) at 5 μM was 6.46 mL/min/kg. For the same compound, in series [3], the CL/F was found to be 6.5 mL/min/kg, the exposure AUC(0-t) was found to be 2510 ng·h/mL, the half-life was 1.45 h and the Vd came to 0.77 L/kg. The bioavailability in series [3] stood at 105%.
For the compound `Cc1nc(-c2c(N)ncnc2N[C@@H](C)c2nc3cccc(-c4cnn(C)c4)c3c(=O)n2-c2ccccc2)no1` [Ex. 77, (S)-2-(1-((6-amino-5-(5-methyl-1,2,4-oxadiazol-3-yl)pyrimidin-4-yl)amino)ethyl)-5-(1-methyl-1H-pyrazol-4-yl)-3-phenylquinazolin-4(3H)-one], in series [1], the CLint scaled at 5 μM is 21.2 mL/min/kg and the half-life at 5 μM was 1.95 h. Besides, in series [2], the half-life at 5 μM is 1.36 h and the CLint scaled at 5 μM is 21.3 mL/min/kg. Further, in series [3], the CL/F is 5.33 mL/min/kg, the AUC(0-t) came to 2920 ng·h/mL, the half-life was 1.76 h and the Vd turned out to be 0.78 L/kg. The bioavailability in series [3] turned out to be 109%.
With `CC[C@H](Nc1ncnc(N)c1-c1nnn(C)n1)c1nc2cccc(-c3cnn(C)c3)c2c(=O)n1C1CC1` [Ex. 78, (S)-2-(1-((6-amino-5-(2-methyl-2H-tetrazol-5-yl)pyrimidin-4-yl)amino)propyl)-3-cyclopropyl-5-(1-methyl-1H-pyrazol-4-yl)quinazolin-4(3H)-one], in series [1], the CLint scaled at 5 μM is 38.3 mL/min/kg and the half-life at 5 μM was found to be 1.08 h. In series [2], the half-life at 5 μM came to 1 h and the CLint scaled at 5 μM is 28.9 mL/min/kg. In series [3], the CL/F amounted to 20.8 mL/min/kg, the AUC(0-t) stood at 783 ng·h/mL, the half-life is 1.27 h and the Vd is 2.18 L/kg. The bioavailability in series [3] is 67.7%.
Consider `CC[C@H](Nc1ncnc(N)c1-c1noc(C)n1)c1nc2cccc(-c3cnn(C)c3)c2c(=O)n1C1CC1` [Ex. 79, (S)-2-(1-((6-amino-5-(5-methyl-1,2,4-oxadiazol-3-yl)pyrimidin-4-yl)amino)propyl)-3-cyclopropyl-5-(1-methyl-1H-pyrazol-4-yl)quinazolin-4(3H)-one], for which, in series [1], the CLint scaled at 5 μM is 17.3 mL/min/kg and the half-life at 5 μM came out at 2.4 h. Also, in series [2], the half-life at 5 μM stood at 0.821 h and the intrinsic metabolic clearance (CLint scaled) at 5 μM is 35.3 mL/min/kg. Moreover, in series [3], the CL/F was 32.2 mL/min/kg, the AUC(0-t) was found to be 511 ng·h/mL, the half-life was 1.36 h and the Vd is 4.25 L/kg. Also, the bioavailability in series [3] is 78.7%.
Turning to `Cc1nc(-c2c(N)ncnc2N[C@@H](C)c2nc3cccc(-c4cnn(C)c4)c3c(=O)n2C2CC2)no1` [Ex. 80, (S)-2-(1-((6-amino-5-(5-methyl-1,2,4-oxadiazol-3-yl)pyrimidin-4-yl)amino)ethyl)-3-cyclopropyl-5-(1-methyl-1H-pyrazol-4-yl)quinazolin-4(3H)-one], in series [1], the CLint scaled at 5 μM is 37.7 mL/min/kg and the half-life at 5 μM is 1.1 h. In series [2], the half-life at 5 μM came to 1.07 h and the CLint scaled at 5 μM is 27 mL/min/kg.
